Data reported in patent publication US20150105252A1, “SUBSTITUTED PYRAZOLES AS HERBICIDES” (E I DU PONT DE NEMOURS AND COMPANY, priority 2013, published 2015).

Key:
[1] = tested on: buckwheat, wild; experiment: Test D preemergence; assay type: in vivo, Polygonum convolvulus; conditions: Preemergence, scale 0 to 100
Description: (§1) Seeds of plant species selected from bluegrass (annual bluegrass, Poa annua), blackgrass (Alopecurus myosuroides), canarygrass (littleseed canarygrass, Phalaris minor), chickweed (common chickweed, Stellaria media), galium (catchweed bedstraw, Galium aparine), bromegrass, downy (downy bromegrass, Bromus tectorum), field poppy (Papaver rhoeas), field violet (Viola arvensis), foxtail, green (green foxtail, Setaria viridis), deadnettle (henbit deadnettle, Lamium amplexicaule), ryegrass, Italian (Italian ryegrass, Lolium multiflorum), kochia (Kochia scoparia), lambsquarters (Chenopodium album), oilseed rape (Brassica napus), pigweed (redroot pigweed, Amaranthus retroflexus), chamomile (scentless chamomile, Matricaria inodora), speedwell (bird's-eye speedwell, Veronica persica), barley, spring (spring barley, Hordeum vulgare), wheat, spring (spring wheat, Triticum aestivum), buckwheat, wild (wild buckwheat, Polygonum convolvulus), mustard, wild (wild mustard, Sinapis arvensis), oat, wild (wild oat, Avena fatua), radish, wild (wild radish, Raphanus raphanistrum), windgrass (Apera spica-venti), Russian thistle (Salsola kali), barley, winter (winter barley, Hordeum vulgare), and wheat, winter (winter wheat, Triticum aestivum) were planted into a silt loam soil and treated preemergence with test chemicals formulated in a non-phytotoxic solvent mixture which included a surfactant.
(§2) At the same time, these species were planted in pots containing Redi-Earth® planting medium (Scotts Company, 14111 Scottslawn Road, Marysville, Ohio 43041) comprising spaghnum peat moss, vermiculite, wetting agent and starter nutrients and treated with postemergence applications of the test chemicals formulated in the same manner. Plants ranged in height from 2 to 18 cm (1- to 4-leaf stage). Treated plants and controls were maintained in a controlled growth environment for 14 to 21 days after which time all species were compared to controls and visually evaluated. Plant response ratings, summarized in Table D, are based on a scale of 0 to 100 where 0 is no effect and 100 is complete control. A dash (-) response means no test result.

[2] = tested on: field violet; experiment: Test D preemergence; assay type: in vivo, Viola arvensis; conditions: Preemergence, scale 0 to 100
Description: as §1, §2

[3] = tested on: canarygrass; experiment: Test D preemergence; assay type: in vivo, Phalaris minor; conditions: Preemergence, scale 0 to 100
Description: as §1, §2

[4] = tested on: lambsquarters; experiment: Test D postemergence; assay type: in vivo, Chenopodium album; conditions: scale 0 to 100
Description: as §1, §2

[5] = tested on: speedwell; experiment: Test D preemergence; assay type: in vivo, Veronica persica; conditions: Preemergence, scale 0 to 100
Description: as §1, §2

[6] = tested on: windgrass; experiment: Test D preemergence; assay type: in vivo, Apera spica-venti; conditions: Preemergence, scale 0 to 100
Description: as §1, §2

[7] = tested on: chamomile; experiment: Test D postemergence; assay type: in vivo, Matricaria inodora; conditions: scale 0 to 100
Description: as §1, §2

[8] = tested on: kochia; experiment: Test D preemergence; assay type: in vivo, Kochia scoparia; conditions: Preemergence, scale 0 to 100
Description: as §1, §2

[9] = tested on: ryegrass, Italian; experiment: Test D postemergence; assay type: in vivo, Lolium multiflorum; conditions: scale 0 to 100
Description: as §1, §2

[10] = tested on: kochia; experiment: Test D postemergence; assay type: in vivo, Kochia scoparia; conditions: scale 0 to 100
Description: as §1, §2

[11] = tested on: radish, wild; experiment: Test D postemergence; assay type: in vivo, Raphanus raphanistrum; conditions: scale 0 to 100
Description: as §1, §2

[12] = tested on: speedwell; experiment: Test D postemergence; assay type: in vivo, Veronica persica; conditions: scale 0 to 100
Description: as §1, §2

CCc1cc(C(=O)NCC(F)(F)F)nn1Cc1ccnc(SC(F)(F)F)c1 [Compound 214]
Plant response rating, Buckwheat, Wild ([1]; 31 g ai/ha): 35
Plant response rating, Buckwheat, Wild ([1]; 62 g ai/ha): 95
Plant response rating, Buckwheat, Wild ([1]; 125 g ai/ha): 90
Plant response rating, Buckwheat, Wild ([1]; 250 g ai/ha): 100
Plant response rating, Field Violet ([2]; 62 g ai/ha): 100
Plant response rating, Field Violet ([2]; 125 g ai/ha): 100
Plant response rating, Field Violet ([2]; 250 g ai/ha): 100
Plant response rating, Canarygrass ([3]; 31 g ai/ha): 40
Plant response rating, Canarygrass ([3]; 62 g ai/ha): 65
Plant response rating, Canarygrass ([3]; 125 g ai/ha): 100
Plant response rating, Canarygrass ([3]; 250 g ai/ha): 100
Lambsquarters plant response rating ([4]; Postemergence, 31 g ai/ha): 65
Lambsquarters plant response rating ([4]; Postemergence, 125 g ai/ha): 80
Lambsquarters plant response rating ([4]; Postemergence, 250 g ai/ha): 90
Lambsquarters plant response rating ([4]; postemergence, 62 g ai/ha): 65
Plant response rating, Speedwell ([5]; 62 g ai/ha): 100
Plant response rating, Speedwell ([5]; 125 g ai/ha): 100
Plant response rating, Speedwell ([5]; 250 g ai/ha): 100
Plant response rating, Windgrass ([6]; 62 g ai/ha): 85
Plant response rating, Windgrass ([6]; 125 g ai/ha): 90
Plant response rating, Windgrass ([6]; 250 g ai/ha): 100
Chamomile plant response rating ([7]; Postemergence, 31 g ai/ha): 40
Chamomile plant response rating ([7]; Postemergence, 125 g ai/ha): 60
Chamomile plant response rating ([7]; Postemergence, 250 g ai/ha): 70
Chamomile plant response rating ([7]; postemergence, 62 g ai/ha): 40
Plant response rating, Kochia ([8]; 62 g ai/ha): 70
Plant response rating, Kochia ([8]; 125 g ai/ha): 100
Plant response rating, Kochia ([8]; 250 g ai/ha): 100
Ryegrass, Italian plant response rating ([9]; Postemergence, 31 g ai/ha): 10
Ryegrass, Italian plant response rating ([9]; Postemergence, 125 g ai/ha): 20
Ryegrass, Italian plant response rating ([9]; Postemergence, 250 g ai/ha): 45
Ryegrass, Italian plant response rating ([9]; postemergence, 62 g ai/ha): 10
Kochia plant response rating ([10]; Postemergence, 31 g ai/ha): 70
Kochia plant response rating ([10]; Postemergence, 125 g ai/ha): 80
Kochia plant response rating ([10]; Postemergence, 250 g ai/ha): 85
Kochia plant response rating ([10]; postemergence, 62 g ai/ha): 70
Radish, Wild plant response rating ([11]; Postemergence, 31 g ai/ha): 65
Radish, Wild plant response rating ([11]; Postemergence, 125 g ai/ha): 70
Radish, Wild plant response rating ([11]; Postemergence, 250 g ai/ha): 100
Radish, Wild plant response rating ([11]; postemergence, 62 g ai/ha): 65
Speedwell plant response rating ([12]; Postemergence, 31 g ai/ha): 90
Speedwell plant response rating ([12]; Postemergence, 125 g ai/ha): 95
Speedwell plant response rating ([12]; Postemergence, 250 g ai/ha): 100
Speedwell plant response rating ([12]; postemergence, 62 g ai/ha): 90

CCCc1cc(C(=O)NC(C)C)nn1Cc1cc(C(F)(F)F)nn1C [Compound 201]
Plant response rating, Buckwheat, Wild ([1]; 31 g ai/ha): 15
Plant response rating, Buckwheat, Wild ([1]; 62 g ai/ha): 100
Plant response rating, Buckwheat, Wild ([1]; 250 g ai/ha): 100
Plant response rating, Field Violet ([2]; 62 g ai/ha): 100
Plant response rating, Field Violet ([2]; 125 g ai/ha): 100
Plant response rating, Field Violet ([2]; 250 g ai/ha): 100
Plant response rating, Canarygrass ([3]; 31 g ai/ha): 60
Plant response rating, Canarygrass ([3]; 62 g ai/ha): 100
Plant response rating, Canarygrass ([3]; 125 g ai/ha): 100
Plant response rating, Canarygrass ([3]; 250 g ai/ha): 100
Lambsquarters plant response rating ([4]; Postemergence, 31 g ai/ha): 75
Lambsquarters plant response rating ([4]; Postemergence, 125 g ai/ha): 90
Lambsquarters plant response rating ([4]; Postemergence, 250 g ai/ha): 90
Lambsquarters plant response rating ([4]; postemergence, 62 g ai/ha): 75
Plant response rating, Speedwell ([5]; 62 g ai/ha): 100
Plant response rating, Speedwell ([5]; 125 g ai/ha): 100
Plant response rating, Speedwell ([5]; 250 g ai/ha): 100
Plant response rating, Windgrass ([6]; 62 g ai/ha): 100
Plant response rating, Windgrass ([6]; 125 g ai/ha): 100
Plant response rating, Windgrass ([6]; 250 g ai/ha): 100
Chamomile plant response rating ([7]; Postemergence, 31 g ai/ha): 35
Chamomile plant response rating ([7]; Postemergence, 125 g ai/ha): 55
Chamomile plant response rating ([7]; Postemergence, 250 g ai/ha): 65
Chamomile plant response rating ([7]; postemergence, 62 g ai/ha): 35
Plant response rating, Kochia ([8]; 62 g ai/ha): 100
Plant response rating, Kochia ([8]; 125 g ai/ha): 100
Plant response rating, Kochia ([8]; 250 g ai/ha): 100
Ryegrass, Italian plant response rating ([9]; Postemergence, 31 g ai/ha): 15
Ryegrass, Italian plant response rating ([9]; Postemergence, 125 g ai/ha): 20
Ryegrass, Italian plant response rating ([9]; Postemergence, 250 g ai/ha): 50
Ryegrass, Italian plant response rating ([9]; postemergence, 62 g ai/ha): 15
Kochia plant response rating ([10]; Postemergence, 31 g ai/ha): 75
Kochia plant response rating ([10]; Postemergence, 125 g ai/ha): 85
Kochia plant response rating ([10]; Postemergence, 250 g ai/ha): 85
Kochia plant response rating ([10]; postemergence, 62 g ai/ha): 75
Radish, Wild plant response rating ([11]; Postemergence, 31 g ai/ha): 65
Radish, Wild plant response rating ([11]; Postemergence, 125 g ai/ha): 65
Radish, Wild plant response rating ([11]; Postemergence, 250 g ai/ha): 65
Radish, Wild plant response rating ([11]; postemergence, 62 g ai/ha): 65
Speedwell plant response rating ([12]; Postemergence, 31 g ai/ha): 70
Speedwell plant response rating ([12]; Postemergence, 125 g ai/ha): 70
Speedwell plant response rating ([12]; Postemergence, 250 g ai/ha): 100
Speedwell plant response rating ([12]; postemergence, 62 g ai/ha): 70
